Laboratory results: US5536714A, “Steroid derivatives for the treatment of prostatic hypertrophy their preparation and uses” (Sankyo Company, Limited, priority 1992, dated 1996)

Test system: Rat 5α-Reductase
Test: Rat 5α-Reductase Inhibition Test
Type: biochemical, rat (Sprague-Dawley, ventral prostate)
Settings: final concentration of test compound 10^-8 M; 1 μM [14C]-testosterone; pH 6.5; 37° C., 15 to 30 minutes
Description: The tissue was then homogenized, first with a Polytron (trade mark) homogenizer (manufactured by Kinematica, GmbH) and then with a Teflon-glass homogenizer (Teflon is a trade mark). The suspension of homogenized prostate tissue was then centrifuged (140000×g, 60 minutes), and the sediment was suspended by adding approximately a 5-fold amount of the above buffer. The suspension was again centrifuged (140000×g, 60 minutes). […] This was adjusted to a protein concentration of 30 to 40 mg/ml by the addition of the buffer described above, and the preparation was then stored frozen at -80° C. Measurement of the amount of protein was performed using the Bio-Rad Protein Assay method, and bovine γ-globulin (Cohn Fraction II, manufactured by Sigma) was used for the protein reference standard. […] The mixture was then incubated at 37° C. for 15 to 30 minutes. Testing was also performed on a control group by adding solvent only. Following incubation, 2 ml of ethyl acetate, containing 10 μg each of testosterone, 5α-dihydrotestosterone and androstenedione, were added to stop the reaction. […] The steroid was dissolved in 40 μl of ethyl acetate and spotted onto a thin layer chromatographic plate (LK5DF silica plate, manufactured by Whatman). The plate was then developed twice at room temperature with a mixture of ethyl acetate and cyclohexane (1:1 by volume). The steroid fraction was identified with ultraviolet light and stained using an aqueous solution of 1% w/v […] and 10% w/v sulfuric acid. The radioactivity profiles of the thin layer chromatographic plate were measured using a bio-image analyzer (manufactured by Fuji Photo Film). Enzyme activity was expressed as the proportion of [^14 C]-5α-dihydrotestosterone that was converted from the [^14 C]-testosterone (conversion rate (%)) added. […]

## C[C@]12CC[C@H]3[C@@H](CC=C4C=C(C(=O)O)CC[C@@]43C)[C@@H]1CC[C@@H]2C(=O)NC(c1ccc(F)cc1)c1ccc(F)cc1 [Example 16, 17β-[N-(4,4'-Difluorobenzhydryl)carbamoyl]androsta-3,5-diene-3-carboxylic acid]
  Inhibitory Activity: 81.7%

## C[C@]12CC[C@H]3[C@@H](CC=C4C=C(C(=O)O)CC[C@@]43C)[C@@H]1CC[C@@H]2C(=O)NC(c1ccccc1)c1ccc(O)cc1 (stereo partly drawn) [Example 15, 17β-[N-(4-Hydroxybenzhydryl)carbamoyl]androsta-3,5-diene-3-carboxylic acid]
  Inhibitory Activity: 73.3%

## CCC(CC)(NC(=O)[C@H]1CC[C@H]2[C@@H]3CC=C4C=C(C(=O)O)CC[C@]4(C)[C@H]3CC[C@]12C)c1ccccc1 [Example 12, 17β-[N-(1-Ethyl-1-phenylpropyl)carbamoyl]androsta-3,5-diene-3-carboxylic acid]
  Inhibitory Activity: 74.0%

## C[C@]12CC[C@H]3[C@@H](CC=C4C=C(C(=O)O)CC[C@@]43C)[C@@H]1CC[C@@H]2C(=O)NC(Cc1ccccc1)c1ccccc1 (stereo partly drawn) [Example 6, 17β-[N-(1,2-Diphenylethyl)carbamoyl]androsta-3,5-diene-3-carboxylic acid]
  Inhibitory Activity: 89.4%

## COc1ccc(C(NC(=O)[C@H]2CC[C@H]3[C@@H]4CC=C5C=C(C(=O)O)CC[C@]5(C)[C@H]4CC[C@]23C)c2ccccc2)cc1 (stereo partly drawn) [Example 21, 17β-[N-(4-Methoxybenzhydryl)carbamoyl]androsta-3,5-diene-3-carboxylic acid]
  Inhibitory Activity: 84.9%

## COc1cccc(C(C)(C)NC(=O)[C@H]2CC[C@H]3[C@@H]4CC=C5C=C(C(=O)O)CC[C@]5(C)[C@H]4CC[C@]23C)c1 [Example 9, 17β-{N-[1-(3-Methoxyphenyl)-1-methylethyl]carbamoyl}androsta-3,5-diene-3-carboxylic acid]
  Inhibitory Activity: 77.9%

## CC(C)(C)NC(=O)[C@H]1CC[C@H]2[C@@H]3CC=C4C=C(C(=O)O)CC[C@]4(C)[C@H]3CC[C@]12C [Compound B, 17β-t-butylcarbamoylandrosta-3,5-diene-3-carboxylic acid, reference compound]
  Inhibitory Activity: 28.1%

## COc1ccc(C(C)(C)NC(=O)[C@H]2CC[C@H]3[C@@H]4CC=C5C=C(C(=O)O)CC[C@]5(C)[C@H]4CC[C@]23C)cc1 [Example 2, 17β-{N-[1-(4-Methoxyphenyl)-1-methylethyl]carbamoyl}androsta-3,5-diene-3-carboxylic acid]
  Inhibitory Activity: 70.6%

## C[C@]12CC[C@H]3[C@@H](CC=C4C=C(C(=O)O)CC[C@@]43C)[C@@H]1CC[C@@H]2C(=O)NC(c1ccccc1)c1ccccc1 [Example 1, 17β-[N-(Diphenylmethyl)carbamoyl]androsta-3,5-diene-3-carboxylic acid]
  Inhibitory Activity: 70.6%

## Cc1ccc(C(C)(C)NC(=O)[C@H]2CC[C@H]3[C@@H]4CC=C5C=C(C(=O)O)CC[C@]5(C)[C@H]4CC[C@]23C)cc1 [Example 11, 17β-{N-[1-(4-Methylphenyl)-1-methylethyl]carbamoyl}androsta-3,5-diene-3-carboxylic acid]
  Inhibitory Activity: 73.5%

## C[C@]12CC[C@H]3[C@@H](CC=C4C=C(C(=O)O)CC[C@@]43C)[C@@H]1CC[C@@H]2C(=O)N(Cc1ccccc1)Cc1ccccc1 [Example 25, 17β-(N,N-Dibenzylcarbamoyl)androsta-3,5-diene-3-carboxylic acid]
  Inhibitory Activity: 79.3%

## CCOc1ccc(C(C)(C)NC(=O)[C@H]2CC[C@H]3[C@@H]4CC=C5C=C(C(=O)O)CC[C@]5(C)[C@H]4CC[C@]23C)cc1 [Example 13, 17β-{N-[1-(4-Ethoxyphenyl)-1-methylethyl]carbamoyl}androsta-3,5-diene-3-carboxylic acid]
  Inhibitory Activity: 84.3%

## COc1ccc(C(C)(C)NC(=O)[C@H]2CC[C@H]3[C@@H]4CC=C5C=C(C(=O)O)CC[C@]5(C)[C@H]4CC[C@]23C)cc1OC [Example 7, 17β-{N-[1-(3,4-Dimethoxyphenyl)-1-methylethyl]carbamoyl}androsta-3,5-diene-3-carboxylic acid]
  Inhibitory Activity: 70.3%
